# Experimental data as given in the NIST ThermoML archive (doi:10.1016/j.fluid.2016.04.009).
# ± gives the expanded uncertainty stated by the source.
# Legend:
# [1] = for viscosity / mass density: 101.33 kPa; for viscosity / mass density / surface tension liquid-gas: Liquid; for viscosity: Concentric cylinders viscometry; for mass density: Vibrating tube method; for Normal melting temperature: Crystal, DTA; for surface tension liquid-gas: Pendant drop shape
# [2] = Molar enthalpy of transition or fusion; conditions: Crystal; DSC
# [3] = molar heat capacity at constant pressure; conditions: 298.15 K; 101.33 kPa; Liquid; Drop calorimetry
# [4] = refractive index (Na D-line) (dimensionless); conditions: 101.33 kPa, Liquid, Standard Abbe refractometry
compound,measurement,setting,value
CCCC[N+]1(C)CCCC1.O=S(=O)([N-]S(=O)(=O)C(F)(F)F)C(F)(F)F,viscosity,[1]; 293.15 K,101.71 ± 1.4 mPa·s
same,mass density,[1]; 293.15 K,1406.1 ± 0.7 kg/m3
same,viscosity,[1]; 298.15 K,79.57 ± 1 mPa·s
same,mass density,[1]; 298.15 K,1401.6 ± 0.7 kg/m3
same,viscosity,[1]; 303.15 K,63.64 ± 0.68 mPa·s
same,mass density,[1]; 303.15 K,1397.2 ± 0.7 kg/m3
same,viscosity,[1]; 308.15 K,51.71 ± 0.51 mPa·s
same,mass density,[1]; 308.15 K,1392.7 ± 0.7 kg/m3
same,viscosity,[1]; 313.15 K,42.67 ± 0.42 mPa·s
same,mass density,[1]; 313.15 K,1388.3 ± 0.7 kg/m3
same,viscosity,[1]; 318.15 K,35.6 ± 0.3 mPa·s
same,mass density,[1]; 318.15 K,1383.8 ± 0.7 kg/m3
same,viscosity,[1]; 323.15 K,30.07 ± 0.27 mPa·s
same,mass density,[1]; 323.15 K,1379.4 ± 0.7 kg/m3
same,viscosity,[1]; 328.15 K,25.66 ± 0.23 mPa·s
same,mass density,[1]; 328.15 K,1375.1 ± 0.6 kg/m3
same,viscosity,[1]; 333.15 K,22.16 ± 0.19 mPa·s
same,mass density,[1]; 333.15 K,1370.7 ± 0.6 kg/m3
same,viscosity,[1]; 338.15 K,19.21 ± 0.16 mPa·s
same,mass density,[1]; 338.15 K,1366.4 ± 0.6 kg/m3
same,viscosity,[1]; 343.15 K,16.83 ± 0.14 mPa·s
same,mass density,[1]; 343.15 K,1362.1 ± 0.6 kg/m3
same,viscosity,[1]; 348.15 K,14.84 ± 0.12 mPa·s
same,mass density,[1]; 348.15 K,1357.8 ± 0.6 kg/m3
same,viscosity,[1]; 353.15 K,13.21 ± 0.11 mPa·s
same,mass density,[1]; 353.15 K,1353.6 ± 0.6 kg/m3
same,viscosity,[1]; 358.15 K,11.77 ± 0.09 mPa·s
same,mass density,[1]; 358.15 K,1349.3 ± 0.6 kg/m3
same,viscosity,[1]; 363.15 K,10.57 ± 0.08 mPa·s
same,mass density,[1]; 363.15 K,1345.1 ± 0.6 kg/m3
same,Normal melting temperature,[1],-13.4 ± 1.1 °C
same,Molar enthalpy of transition or fusion,[2],4.83 ± 0.359 kcal/mol
same,molar heat capacity at constant pressure,[3],584.19 ± 14 J/K/mol
same,refractive index,[4]; 288.15 K,1.42612 ± 0.00037
same,refractive index,[4]; 293.15 K,1.42466 ± 0.00037
same,refractive index,[4]; 298.15 K,1.42319 ± 0.00037
same,refractive index,[4]; 303.15 K,1.42173 ± 0.00037
same,refractive index,[4]; 308.15 K,1.42027 ± 0.00037
same,refractive index,[4]; 313.15 K,1.4188 ± 0.00037
same,refractive index,[4]; 318.15 K,1.41734 ± 0.00037
Cc1ccc[n+](CC(C)C)c1.O=S(=O)([N-]S(=O)(=O)C(F)(F)F)C(F)(F)F,viscosity,[1]; 293.15 K,135.42 ± 2.7 mPa·s
same,mass density,[1]; 293.15 K,1417.2 ± 1.8 kg/m3
same,viscosity,[1]; 298.15 K,100.1 ± 1.8 mPa·s
same,mass density,[1]; 298.15 K,1412.6 ± 1.8 kg/m3
same,surface tension liquid-gas,[1]; 298.2 K,33.45 ± 0.75 mN/m
same,viscosity,[1]; 303.15 K,76.34 ± 1.2 mPa·s
same,mass density,[1]; 303.15 K,1408 ± 1.8 kg/m3
same,viscosity,[1]; 308.15 K,59.56 ± 0.85 mPa·s
same,mass density,[1]; 308.15 K,1403.4 ± 1.8 kg/m3
same,surface tension liquid-gas,[1]; 308.2 K,32.99 ± 0.75 mN/m
same,viscosity,[1]; 313.15 K,47.48 ± 0.66 mPa·s
same,mass density,[1]; 313.15 K,1398.8 ± 1.8 kg/m3
same,viscosity,[1]; 318.15 K,38.42 ± 0.52 mPa·s
same,mass density,[1]; 318.15 K,1394.2 ± 1.8 kg/m3
same,surface tension liquid-gas,[1]; 318.2 K,32.54 ± 0.75 mN/m
same,viscosity,[1]; 323.15 K,31.63 ± 0.41 mPa·s
same,mass density,[1]; 323.15 K,1389.7 ± 1.7 kg/m3
same,viscosity,[1]; 328.15 K,26.4 ± 0.3 mPa·s
same,mass density,[1]; 328.15 K,1385.1 ± 1.7 kg/m3
same,surface tension liquid-gas,[1]; 328.2 K,32.08 ± 0.74 mN/m
same,viscosity,[1]; 333.15 K,22.36 ± 0.28 mPa·s
same,mass density,[1]; 333.15 K,1380.6 ± 1.7 kg/m3
same,viscosity,[1]; 338.15 K,19.08 ± 0.24 mPa·s
same,mass density,[1]; 338.15 K,1376.1 ± 1.7 kg/m3
same,surface tension liquid-gas,[1]; 338.2 K,31.63 ± 0.74 mN/m
same,viscosity,[1]; 343.15 K,16.47 ± 0.2 mPa·s
same,mass density,[1]; 343.15 K,1371.6 ± 1.7 kg/m3
same,surface tension liquid-gas,[1]; 343.2 K,31.4 ± 0.74 mN/m
same,viscosity,[1]; 348.15 K,14.35 ± 0.17 mPa·s
same,mass density,[1]; 348.15 K,1367.2 ± 1.7 kg/m3
same,viscosity,[1]; 353.15 K,12.63 ± 0.15 mPa·s
same,mass density,[1]; 353.15 K,1362.8 ± 1.7 kg/m3
same,viscosity,[1]; 358.15 K,11.14 ± 0.13 mPa·s
same,mass density,[1]; 358.15 K,1358.4 ± 1.7 kg/m3
same,viscosity,[1]; 363.15 K,9.93 ± 0.12 mPa·s
same,mass density,[1]; 363.15 K,1354.1 ± 1.7 kg/m3
same,molar heat capacity at constant pressure,[3],578.87 ± 13 J/K/mol
same,refractive index,[4]; 288.15 K,1.44902 ± 0.00051
same,refractive index,[4]; 293.15 K,1.44743 ± 0.00051
same,refractive index,[4]; 298.15 K,1.44585 ± 0.00051
same,refractive index,[4]; 303.15 K,1.44426 ± 0.00051
same,refractive index,[4]; 308.15 K,1.44268 ± 0.00051
same,refractive index,[4]; 313.15 K,1.44109 ± 0.00051
same,refractive index,[4]; 318.15 K,1.43951 ± 0.00051
CC(C)C[N+]1(C)CCCC1.O=S(=O)([N-]S(=O)(=O)C(F)(F)F)C(F)(F)F,viscosity,[1]; 293.15 K,83.61 ± 1.2 mPa·s
same,mass density,[1]; 293.15 K,1404.5 ± 1.8 kg/m3
same,viscosity,[1]; 298.15 K,66.29 ± 0.94 mPa·s
same,mass density,[1]; 298.15 K,1400 ± 1.8 kg/m3
same,surface tension liquid-gas,[1]; 298.2 K,33.54 ± 0.75 mN/m
same,viscosity,[1]; 303.15 K,53.53 ± 0.71 mPa·s
same,mass density,[1]; 303.15 K,1395.6 ± 1.8 kg/m3
same,viscosity,[1]; 308.15 K,43.91 ± 0.58 mPa·s
same,mass density,[1]; 308.15 K,1391.2 ± 1.7 kg/m3
same,surface tension liquid-gas,[1]; 308.2 K,33.1 ± 0.75 mN/m
same,viscosity,[1]; 313.15 K,36.52 ± 0.47 mPa·s
same,mass density,[1]; 313.15 K,1386.8 ± 1.7 kg/m3
same,viscosity,[1]; 318.15 K,30.75 ± 0.39 mPa·s
same,mass density,[1]; 318.15 K,1382.4 ± 1.7 kg/m3
same,surface tension liquid-gas,[1]; 318.2 K,32.65 ± 0.75 mN/m
same,viscosity,[1]; 323.15 K,26.18 ± 0.32 mPa·s
same,mass density,[1]; 323.15 K,1378 ± 1.7 kg/m3
same,viscosity,[1]; 328.15 K,22.52 ± 0.28 mPa·s
same,mass density,[1]; 328.15 K,1373.7 ± 1.7 kg/m3
same,surface tension liquid-gas,[1]; 328.2 K,32.2 ± 0.74 mN/m
same,viscosity,[1]; 333.15 K,19.57 ± 0.24 mPa·s
same,mass density,[1]; 333.15 K,1369.4 ± 1.7 kg/m3
same,viscosity,[1]; 338.15 K,17.09 ± 0.2 mPa·s
same,mass density,[1]; 338.15 K,1365.2 ± 1.7 kg/m3
same,surface tension liquid-gas,[1]; 338.2 K,31.75 ± 0.74 mN/m
same,viscosity,[1]; 343.15 K,15.06 ± 0.18 mPa·s
same,mass density,[1]; 343.15 K,1360.9 ± 1.7 kg/m3
same,surface tension liquid-gas,[1]; 343.2 K,31.53 ± 0.74 mN/m
same,viscosity,[1]; 348.15 K,13.36 ± 0.16 mPa·s
same,mass density,[1]; 348.15 K,1356.7 ± 1.7 kg/m3
same,viscosity,[1]; 353.15 K,11.95 ± 0.14 mPa·s
same,mass density,[1]; 353.15 K,1352.5 ± 1.6 kg/m3
same,viscosity,[1]; 358.15 K,10.7 ± 0.1 mPa·s
same,mass density,[1]; 358.15 K,1348.3 ± 1.6 kg/m3
same,viscosity,[1]; 363.15 K,9.65 ± 0.11 mPa·s
same,mass density,[1]; 363.15 K,1344.1 ± 1.6 kg/m3
same,Normal melting temperature,[1],-0.2 ± 1.1 °C
same,Molar enthalpy of transition or fusion,[2],3.13 ± 0.335 kcal/mol
same,molar heat capacity at constant pressure,[3],582.08 ± 14 J/K/mol
same,refractive index,[4]; 288.15 K,1.42708 ± 0.00051
same,refractive index,[4]; 293.15 K,1.42563 ± 0.00051
same,refractive index,[4]; 298.15 K,1.42418 ± 0.00051
same,refractive index,[4]; 303.15 K,1.42273 ± 0.00051
same,refractive index,[4]; 308.15 K,1.42127 ± 0.00051
same,refractive index,[4]; 313.15 K,1.41982 ± 0.00051
same,refractive index,[4]; 318.15 K,1.41837 ± 0.00051
CCCC[n+]1cccc(C)c1.O=S(=O)([N-]S(=O)(=O)C(F)(F)F)C(F)(F)F,viscosity,[1]; 293.15 K,84.2 ± 1 mPa·s
same,mass density,[1]; 293.15 K,1418.7 ± 0.7 kg/m3
same,viscosity,[1]; 298.15 K,65.74 ± 0.76 mPa·s
same,mass density,[1]; 298.15 K,1414.1 ± 0.7 kg/m3
same,viscosity,[1]; 303.15 K,52.39 ± 0.55 mPa·s
same,mass density,[1]; 303.15 K,1409.4 ± 0.7 kg/m3
same,viscosity,[1]; 308.15 K,42.46 ± 0.44 mPa·s
same,mass density,[1]; 308.15 K,1404.8 ± 0.7 kg/m3
same,viscosity,[1]; 313.15 K,34.93 ± 0.34 mPa·s
same,mass density,[1]; 313.15 K,1400.2 ± 0.7 kg/m3
same,viscosity,[1]; 318.15 K,29.13 ± 0.28 mPa·s
same,mass density,[1]; 318.15 K,1395.6 ± 0.7 kg/m3
same,viscosity,[1]; 323.15 K,24.59 ± 0.23 mPa·s
same,mass density,[1]; 323.15 K,1391.1 ± 0.7 kg/m3
same,viscosity,[1]; 328.15 K,20.97 ± 0.19 mPa·s
same,mass density,[1]; 328.15 K,1386.6 ± 0.7 kg/m3
same,viscosity,[1]; 333.15 K,18.1 ± 0.16 mPa·s
same,mass density,[1]; 333.15 K,1382 ± 0.7 kg/m3
same,viscosity,[1]; 338.15 K,15.71 ± 0.13 mPa·s
same,mass density,[1]; 338.15 K,1377.6 ± 0.7 kg/m3
same,viscosity,[1]; 343.15 K,13.77 ± 0.11 mPa·s
same,mass density,[1]; 343.15 K,1373.1 ± 0.6 kg/m3
same,viscosity,[1]; 348.15 K,12.15 ± 0.1 mPa·s
same,mass density,[1]; 348.15 K,1368.7 ± 0.6 kg/m3
same,viscosity,[1]; 353.15 K,10.82 ± 0.09 mPa·s
same,mass density,[1]; 353.15 K,1364.3 ± 0.6 kg/m3
same,viscosity,[1]; 358.15 K,9.66 ± 0.08 mPa·s
same,mass density,[1]; 358.15 K,1359.9 ± 0.6 kg/m3
same,viscosity,[1]; 363.15 K,8.69 ± 0.07 mPa·s
same,mass density,[1]; 363.15 K,1355.6 ± 0.6 kg/m3
same,molar heat capacity at constant pressure,[3],578.01 ± 13 J/K/mol
same,refractive index,[4]; 288.15 K,1.44894 ± 0.00037
same,refractive index,[4]; 293.15 K,1.44737 ± 0.00037
same,refractive index,[4]; 298.15 K,1.4458 ± 0.00037
same,refractive index,[4]; 303.15 K,1.44423 ± 0.00037
same,refractive index,[4]; 308.15 K,1.44266 ± 0.00037
same,refractive index,[4]; 313.15 K,1.44109 ± 0.00037
same,refractive index,[4]; 318.15 K,1.43952 ± 0.00037
